Patent publication US11845760B2, “PRMT5 inhibitors” (AMGEN INC., priority 2020, dated 2023)
Like-named read-outs stand apart in the source and are kept apart here.

Key:
HCT116 MTAP null cells = experiment: HCT116 MTAP null cell line proliferation (CellTiter-Glo cell viability, 6 days); type: cell-based; settings: HCT116 MTAP null cells, 6 days of treatment, CellTiter-Glo cell viability, read-out: HCT-116 MTAP null IC50
How it was run: (§1)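 Viability by CellTiter-Glo after 6 days' drug exposure in wild-type HCT116 and its MTAP-null knockout, with DMSO-only control. Dosing used either 1:3 steps (top 1 or 10 μM) or 22 points in 1:2 steps (top 10 or 50 μM). IC50 taken where the fitted curve crosses 50% of control.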

HCT116 WT cells = experiment: HCT116 WT cell line proliferation (CellTiter-Glo cell viability, 6 days); type: cell-based; settings: HCT116 WT (parent) cells, 6 days of treatment, CellTiter-Glo cell viability, read-out: HCT-116 WT IC50
How it was run: as §1

Row | Structure (SMILES) | IC50 (HCT116 MTAP null cells; HCT116-MTAP null, 144 h) [µM] | IC50 (HCT116 WT cells; Homo sapiens, HCT-116, 144 h) [µM] | IC50 (HCT116 MTAP null cells) [µM] | IC50 (HCT116 WT cells) [µM]
1 | C[C@H]1OCc2c1c(N)nc1cnc(C(=O)N3CCOC[C@@H]3c3ccc(S(F)(F)(F)(F)F)cc3)cc21 [Example 417, ((3R)-4-amino-3-methyl-1,3-dihydrofuro[3,4-c][1,7]naphthyridin-8-yl)((3S)-3-(4-(pentafluoro-lambda~6~-sulfanyl)phenyl)-4-morpholinyl)methanone] | 0.017 | 0.523 |  | 
2 | Nc1nc2cc(Cl)c(C(=O)N3CCOC[C@@H]3c3ccc(S(F)(F)(F)(F)F)cc3)cc2c2c1COC2 [Example 418, (4-amino-7-chloro-1,3-dihydrofuro[3,4-c]quinolin-8-yl)((3S)-3-(4-(pentafluoro-lambda~6~-sulfanyl)phenyl)-4-morpholinyl)methanone] | 0.01 | 0.243 |  | 
3 | Cn1ncc2c3cc(C(=O)N4CCOC[C@@H]4c4ccc(S(F)(F)(F)(F)F)cc4)c(Cl)cc3nc(N)c21 [Example 419, (4-amino-7-chloro-3-methyl-3H-pyrazolo[3,4-c]quinolin-8-yl)((3S)-3-(4-(pentafluoro-lambda~6~-sulfanyl)phenyl)-4-morpholinyl)methanone] | 0.023 | 0.548 |  | 
4 | Cn1ncc2c(N)nc3cc(F)c(C(=O)N4CCOC[C@@H]4c4ccc(C(F)(F)F)cc4)cc3c21 [Example 420, (4-amino-7-fluoro-1-methyl-1H-pyrazolo[4,3-c]quinolin-8-yl)((3S)-3-(4-(trifluoromethyl)phenyl)-4-morpholinyl)methanone] | 0.012 | 0.338 |  | 
5 | C[C@H]1OCc2c1c(N)nc1ccc(C(=O)N3CC(c4ccc(C(F)(F)F)cn4)C3)cc21 [Example 421, ((3R)-4-amino-3-methyl-1,3-dihydrofuro[3,4-c]quinolin-8-yl)(3-(5-(trifluoromethyl)-2-pyridinyl)-1-azetidinyl)methanone] | 0.914 | > 50 |  | 
6 | Nc1nc2cc(F)c(C(=O)N3CC(c4ccc(C(F)(F)F)cc4)C3)cc2c2c1COC2 [Example 422] |  |  | 0.633 | 12.5
7 | Nc1nc2cc(F)c(C(=O)N3CC(c4ccc(C(F)(F)F)cn4)C3)cc2c2c1COC2 [Example 423, (4-amino-7-fluoro-1,3-dihydrofuro[3,4-c]quinolin-8-yl)(3-(5-(trifluoromethyl)-2-pyridinyl)-1-azetidinyl)methanone] | 0.653 | 33.3 |  | 
8 | Cn1ncc2c(N)nc3ccc(C(=O)N4CC[C@H](c5ccc(C(F)(F)F)cc5)C4)cc3c21 [Example 425, (4-amino-1-methyl-1H-pyrazolo[4,3-c]quinolin-8-yl)((3R)-3-(4-(trifluoromethyl)phenyl)-1-pyrrolidinyl)methanone] | 0.147 | 4.4 |  | 
9 | Cn1ncc2c(N)nc3cnc(C(=O)N4CC[C@H](c5ccc(C(F)(F)F)cc5)C4)cc3c21 [Example 426, (4-amino-1-methyl-1H-pyrazolo[4,3-c][1,7]naphthyridin-8-yl)((3R)-3-(4-(trifluoromethyl)phenyl)-1-pyrrolidinyl)methanone] | 0.097 | 4.76 |  | 
10 | Cn1ncc2c(N)nc3cc(F)c(C(=O)N4CC(c5ccc(C(F)(F)F)cc5)C4)cc3c21 [Example 427, (4-amino-7-fluoro-1-methyl-1H-pyrazolo[4,3-c]quinolin-8-yl)(3-(4-(trifluoromethyl)phenyl)-1-azetidinyl)methanone] | 0.04 | 2.54 |  | 
11 | Cn1ncc2c(N)nc3cc(F)c(C(=O)N4CC(c5ccc(C(F)(F)F)cn5)C4)cc3c21 [Example 428, (4-amino-7-fluoro-1-methyl-1H-pyrazolo[4,3-c]quinolin-8-yl)(3-(5-(trifluoromethyl)-2-pyridinyl)-1-azetidinyl)methanone] | 0.074 | 8.4 |  | 
12 | Nc1nc2cc(F)c(C(=O)N3CC(O)(c4ccc(C(F)(F)F)cc4)C3)cc2c2c1COC2 [Example 429, (4-amino-7-fluoro-1,3-dihydrofuro[3,4-c]quinolin-8-yl)(3-hydroxy-3-(4-(trifluoromethyl)phenyl)-1-azetidinyl)methanone] | 0.382 | 20.6 |  | 
13 | Nc1nc2cc(Cl)c(C(=O)N3CC(c4ccc(C(F)(F)F)cc4)C3)cc2c2c1COC2 [Example 430, (4-amino-7-chloro-1,3-dihydrofuro[3,4-c]quinolin-8-yl)(3-(4-(trifluoromethyl)phenyl)-1-azetidinyl)methanone] | 0.445 | 12.6 |  | 
14 | C[C@H]1OCc2c1c(N)nc1ccc(C(=O)N3CC[C@](O)(c4ccc(C(F)(F)F)cc4)C3)cc21 [Example 435, ((3R)-4-amino-3-methyl-1,3-dihydrofuro[3,4-c]quinolin-8-yl)((3S)-3-hydroxy-3-(4-(trifluoromethyl)phenyl)-1-pyrrolidinyl)methanone] | 0.251 | 3.76 |  | 
15 | Cn1ncc2c(N)nc3cc(F)c(C(=O)N4CC[C@H](c5ccc(C(F)(F)F)cc5)C4)cc3c21 [Example 436, (4-amino-7-fluoro-1-methyl-1H-pyrazolo[4,3-c]quinolin-8-yl)((3R)-3-(4-(trifluoromethyl)phenyl)-1-pyrrolidinyl)methanone] | 0.029 | 1.72 |  | 
16 | Cn1ncc2c3cc(C(=O)N4CC[C@H](c5ccc(C(F)(F)F)cc5)C4)c(F)cc3nc(N)c21 [Example 437, (4-amino-7-fluoro-3-methyl-3H-pyrazolo[3,4-c]quinolin-8-yl)((3R)-3-(4-(trifluoromethyl)phenyl)-1-pyrrolidinyl)methanone] | 0.924 | 16 |  | 
17 | C[C@H]1OCc2c1c(N)nc1ccc(C(=O)N3CC[C@](F)(c4ccc(C(F)(F)F)cc4)C3)cc21 [Example 438, ((3R)-4-amino-3-methyl-1,3-dihydrofuro[3,4-c]quinolin-8-yl)((3S)-3-fluoro-3-(4-(trifluoromethyl)phenyl)-1-pyrrolidinyl)methanone] | 0.878 | 15.2 |  | 
18 | Cn1ncc2c(N)nc3cc(F)c(C(=O)N4CC(O)(c5ccc(C(F)(F)F)cc5)C4)cc3c21 [Example 439, (4-amino-7-fluoro-1-methyl-1H-pyrazolo[4,3-c]quinolin-8-yl)(3-hydroxy-3-(4-(trifluoromethyl)phenyl)-1-azetidinyl)methanone] | 0.021 | 0.887 |  | 
19 | Cn1ncc2c(N)nc3cc(Cl)c(C(=O)N4CC(c5ccc(C(F)(F)F)cc5)C4)cc3c21 [Example 440, (4-amino-7-chloro-1-methyl-1H-pyrazolo[4,3-c]quinolin-8-yl)(3-(4-(trifluoromethyl)phenyl)-1-azetidinyl)methanone] | 0.014 | 0.602 |  | 
20 | Cn1ncc2c(N)nc3cc(Cl)c(C(=O)N4CC(c5ccc(C(F)(F)F)cn5)C4)cc3c21 [Example 442, (4-amino-7-chloro-1-methyl-1H-pyrazolo[4,3-c]quinolin-8-yl)(3-(5-(trifluoromethyl)-2-pyridinyl)-1-azetidinyl)methanone] | 0.04 | 3.61 |  | 
21 | Cn1ncc2c(N)nc3cc(Cl)c(C(=O)N4CC[C@H](c5ccc(C(F)(F)F)cc5)C4)cc3c21 [Example 443, (4-amino-7-chloro-1-methyl-1H-pyrazolo[4,3-c]quinolin-8-yl)((3R)-3-(4-(trifluoromethyl)phenyl)-1-pyrrolidinyl)methanone] | 0.013 | 0.793 |  | 
22 | Cn1ncc2c(N)nc3cc(Cl)c(C(=O)N4CC(O)(c5ccc(C(F)(F)F)cc5)C4)cc3c21 [Example 444, (4-amino-7-chloro-1-methyl-1H-pyrazolo[4,3-c]quinolin-8-yl)(3-hydroxy-3-(4-(trifluoromethyl)phenyl)-1-azetidinyl)methanone] | 0.018 | 0.499 |  | 
23 | Cn1ncc2c(N)nc3cc(F)c(C(=O)N4C[C@@H](CO)[C@H](c5ccc(C(F)(F)F)cc5F)C4)cc3c21 [Example 446, (4-amino-7-fluoro-1-methyl-1H-pyrazolo[4,3-c]quinolin-8-yl)((3R,4S)-3-(2-fluoro-4-(trifluoromethyl)phenyl)-4-(hydroxymethyl)-1-pyrrolidinyl)methanone] | 0.014 | 0.24 |  | 
24 | Cn1ncc2c(N)nc3ccc(C(=O)N4CCOC[C@@H]4c4ccc(S(F)(F)(F)(F)F)cc4)cc3c21 [Example 447, (4-amino-1-methyl-1H-pyrazolo [4,3-c]quinolin-8-yl)((3S)-3-(4-(pentafluoro-lambda~6~-sulfanyl)phenyl)-4-morpholinyl)methanone] | 0.013 | 0.602 |  | 
25 | Cn1ncc2c(N)nc3cnc(C(=O)N4CCOC[C@@H]4c4ccc(S(F)(F)(F)(F)F)cc4)cc3c21 [Example 448, (4-amino-1-methyl-1H-pyrazolo [4,3-c][1,7]naphthyridin-8-yl)((3S)-3-(4-(pentafluoro-lambda~6~-sulfanyl)phenyl)-4-morpholinyl)methanone] | 0.006 | 0.13 |  | 
26 | Cn1ncc2c(N)nc3cc(Cl)c(C(=O)N4C[C@@H](CO)[C@H](c5ccc(C(F)(F)F)cc5F)C4)cc3c21 [Example 449, (4-amino-7-chloro-1-methyl-1H-pyrazolo[4,3-c]quinolin-8-yl)((3R,4S)-3-(2-fluoro-4-(trifluoromethyl)phenyl)-4-(hydroxymethyl)-1-pyrrolidinyl)methanone] | 0.007 | 0.145 |  | 
27 | Cn1ncc2c(N)nc3cc(F)c(C(=O)N4CCOC[C@@H]4c4ccc(S(F)(F)(F)(F)F)cc4)cc3c21 [Example 450, (4-amino-7-fluoro-1-methyl-1H-pyrazolo [4,3-c]quinolin-8-yl)((3S)-3-(4-(pentafluoro-lambda~6~-sulfanyl)phenyl)-4-morpholinyl)methanone] | 0.005 | 0.04 |  | 
